This passage reports IC50 results from patent US12692254B2, “Benzimidazole inhibitors of PAD enzymes” (BRISTOL-MYERS SQUIBB COMPANY, priority 2018, dated 2026).

For the assay, the target named is human PAD4 (hPAD4) (Homo sapiens, UniProt Q9UM07). The assay is described as follows: RFMS human PAD4 functional assay (rapid-fire mass spectrum). Type of assay: biochemical. Conditions: 5 nM hPAD4 enzyme, 250 μM BAEE, 50 μM Calcium; 30 min preincubation, 90 min reaction at 37° C. A digest of the protocol: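 PAD4 (10 nM) preincubated 30 min with compound (top final 50 μM), then BAEE substrate added in pH 7.5 HEPES buffer with DTT, 50 μM calcium, TPEN; 90 min at 37° C. After TCA quench, citrulline derivatized with phenyl glyoxal (4 mM final, 30 min, 37° C) and quantified by RapidFire MS against internal standard.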
Sequence of human PAD4 (hPAD4) (Q9UM07 whole entry): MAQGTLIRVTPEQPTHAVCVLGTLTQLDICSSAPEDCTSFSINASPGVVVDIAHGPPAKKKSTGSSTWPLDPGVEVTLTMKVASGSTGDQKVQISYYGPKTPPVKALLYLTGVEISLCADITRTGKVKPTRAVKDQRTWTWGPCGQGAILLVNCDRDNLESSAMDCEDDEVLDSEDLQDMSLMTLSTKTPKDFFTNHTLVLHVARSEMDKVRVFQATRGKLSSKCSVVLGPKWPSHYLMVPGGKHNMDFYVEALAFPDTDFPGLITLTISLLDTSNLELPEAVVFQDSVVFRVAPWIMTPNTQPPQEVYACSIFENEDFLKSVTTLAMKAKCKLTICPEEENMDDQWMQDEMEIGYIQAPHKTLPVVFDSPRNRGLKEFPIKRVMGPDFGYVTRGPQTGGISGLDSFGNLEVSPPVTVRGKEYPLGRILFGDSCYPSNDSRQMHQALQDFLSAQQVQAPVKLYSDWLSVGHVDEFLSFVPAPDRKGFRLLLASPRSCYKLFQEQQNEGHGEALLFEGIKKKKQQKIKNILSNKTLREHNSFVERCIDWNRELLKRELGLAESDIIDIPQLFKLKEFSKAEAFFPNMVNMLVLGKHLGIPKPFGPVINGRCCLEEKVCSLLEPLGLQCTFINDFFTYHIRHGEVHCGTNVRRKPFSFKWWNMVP

By IC50 is commonly meant the point on the concentration scale where inhibition reaches its midpoint. Turning to `COc1nccc(N2CCC(Cn3c(-c4cc5cccnc5n4CC4CC4)nc4cc(C(=O)N5CC6CCC5[C@@H]6N)cc(OC)c43)CC2)n1` (stereo partly drawn) [Example 222, (1R.,4R,7R)-2-{2-[1-(cyclopropylmethyl)-1H-pyrrolo[2,3-b]pyridin-2-yl]-7-methoxy-1-{[1-(2-methoxypyrimidin-4-yl)piperidin-4-yl]methyl}-1H-1,3-benzodiazole-5-carbonyl}-2-azabicyclo[2.2.1]heptan-7-amine], the concentration for half-maximal inhibition (IC50) was found to be 166 nM. The same measure for `COc1cc(C(=O)N2CC3CCC2[C@@H]3N)cc2nc(-c3cccn3C)n(CC3CN(c4ccnc(C#N)n4)C3)c12` (stereo partly drawn) [Example 318, 4-[3-({5-[(1R,4R,7R)-7-amino-2-azabicyclo[2.2.1]heptane-2-carbonyl]-7-methoxy-2-(1-methyl-1H-pyrrol-2-yl)-1H-1,3-benzodiazo1-1-yl)methyl)azetidin-1-yl]pyrimidine-2-carbonitrile]: 1300 nM.

For `COc1cc(C(=O)N2CC3CCC2[C@@H]3N)cc2nc(-c3cc4ccccc4n3CC3CC3)n(Cc3cn(C)nn3)c12` (stereo partly drawn) [Example 503, (7R)-2-{2-[1-(cyclopropylmethyl)-1H-indol-2-yl]-7-methoxy-1-[(1-methyl-1H-1,2,3-triazol-4-yl)methyl]-1H-1,3-benzodiazole-5-carbonyl}-2-azabicyclo[2.2.1]heptan-7-amine], the 50% inhibitory concentration (IC50) is 149 nM.

On to `CCc1ccccc1-c1nc2cc(C(=O)N3CC4CCC3[C@@H]4N)cc(OC)c2n1CC1CN(c2cncc(C)c2)C1` (stereo partly drawn) [Example 323, (1R,4R,7R)-2-[2-(2-ethytphenyl)-7-methoxy-1-{[1-(5-methylpyridin-3-yl)azetidin-3-yl]methyl}-1H-1,3-benzodiazole-5-carbonyl]-2-azabicyclo[2.2.1]heptan-7-amine], for which the half-inhibitory concentration (IC50) was 2990 nM.

In the case of `COc1cc(C(=O)N2C[C@H]3CC[C@@H]2[C@@H]3N)cc2nc(-c3cc4cccnc4n3CC3CC3)n(C3CN(c4ncccn4)C3)c12` [Example 80, (1R,4R,7R)-2-{2-[1-(cyclopropylmethyl)-1H-pyrrolo[2,3-b]pyridin-2-yl]-7-methoxy-1-[1-(pyrimidin-2-yl)azetidin-3-yl]-1H-1,3-benzodiazole-5-carbonyl}-2-azabicyclo[2.2.1]heptan-7-amine], the IC50 is 403 nM.

As for `COc1cc(C(=O)N2CC(CN)C2)cc2nc(-c3cc4ccccc4n3CC3CC3)n(Cc3cnn(C)c3)c12` [Example 291, (1-{2-[1-(cyclopropylmethyl)-1H-indol-2-yl]-7-methoxy-1-[(1-methyl-1H-pyrazol-4-yl)methyl]-1H-1,3-benzodiazole-5-carbonyl}azetidin-3 yl)methanamine], the IC50 amounted to 1910 nM.

As for `COc1cc(C(=O)N2CC3CCC2[C@@H]3N)cc2nc(-c3cc4cccnc4n3CC3CC3)n(CC3CN(C(=O)c4cccc(Cl)c4)C3)c12` (stereo partly drawn) [Example 456, (7R)-2-(1-{[1-(3-chlorobenzoyl)azetidin-3-yl]methyl}-2-[1-(cyclopropylmethyl)-1H-pyrrolo[2,3-b]pyridin-2-yl]-7-methoxy-1H-1,3-benzodiazole-5-carbonyl)-2-azabicyclo[2.2.1]heptan-7-amine], the half-inhibitory concentration (IC50) was determined as 59 nM. `COc1cc(C(=O)N2CC3CCC2[C@@H]3N)cc2nc(-c3cc4ccccc4n3CC3CC3)n(Cc3ccccc3)c12` (stereo partly shown) [Example 270]: the concentration for half-maximal inhibition (IC50) was 140 nM. The same measure for `COc1cc(C(=O)N2CC3CCC2[C@@H]3N)cc2nc(-c3cc4ccccc4n3CC3CC3)n(Cc3cnn(-c4cncc(C#N)c4)c3)c12` (stereo partly drawn) [Example 351, 5-[4-({5-[(7R)-7-amino~2-azabicyclo[2.2.1]heptane-2-carbonyl]-2-[1-(cyclopropylmethyl)-1H-indol-2-yl]-7-methoxy-1H-1,3-benzodiazol-1-yl}methyl)-1H-pyrazol-1-yl]pyridine-3-carbonitrile]: 18 nM; for `N[C@@H]1[C@@H]2CC[C@H]1N(C(=O)c1ccc3c(c1)nc(-c1cc4ccccc4n1CC1CC1)n3CC1CN(C(=O)c3ccncc3)C1)C2` [Example 175, (1R,4R,7R)-2-{2-[1-(cyclopropylmethyl)-1H-indol-2-yl]-1-{[1-(pyridine-4-carbonyl)azetidin-3-yl]methyl}-1H-1,3-benzodiazole-5-carbonyl}-2-azabicyclo[2.2.1]heptan-7-amine]: 51 nM. For the compound `COc1cc(C(=O)N2CC3CCC2[C@@H]3N)cc2nc(-c3cc4cccnc4n3CC3CC3)n(Cc3cnn(-c4cncnc4)c3)c12` (stereo partly drawn) [Example 408, (7R)-2-{2-[1-(cyclopropylmethyl)-1H-pyrrolo[2,3-b]pyridin-2-yl]-7-methoxy-1-{[1-(pyrimidin-5-yl)-1H-pyrazol-4-yl]methyl}-1H-1,3-benzodiazole-5-carbonyl}-2-azabicyclo[2.2.1]heptan-7-amine], the concentration for half-maximal inhibition (IC50) is 74 nM. In the case of `COc1cc(C(=O)N2C[C@H]3CC[C@@H]2[C@@H]3N)cc2nc(-c3cc4cccnc4n3C)n(C[C@H]3CCN(c4ccnc(C5CC5)n4)C3)c12` [Example 209, (1R,4R,7R)-2-(1-{[(3S)-1-(2-cyclopropylpyrimidin-4-yl)pyrrolidin-3-yl]methyl}-7-methoxy-2-{1-methyl-1H-pyrrolo[2,3-b]pyridin-2-yl}-1H-1,3-benzodiazole-5-carbonyl)-2-azabicyclo[2.2.1]heptan-7-amine] it was 61 nM; in that of `COc1cc(C(=O)N2CC3CCC2[C@@H]3N)cc2nc(-c3cc4cccnc4n3CC3CC3)n(CC3(C)CN(C(=O)c4ccccc4)C3)c12` (stereo partly drawn) [Example 444, (7R)-2-{1-[(1-benzoyl-3-methylazetidin-3-yl)methyl]-2-[1-(cyclopropylmethyl)-1H-pyrrolo[2,3-b]pyridin-2-yl]-7-methoxy-1H-1,3-benzodiazole-5-carbonyl}-2-azabicyclo[2.2.1]heptan-7-amine], 43 nM; in that of `COc1cnc(N2CC(Cn3c(-c4cc5cccnc5n4CC4CC4)nc4cc(C(=O)N5C[C@H]6CC[C@@H]5[C@@H]6N)cc(OC)c43)C2)cn1` [Example 33, (1R,4R,7R)-2-{2-[1-(cyclopropylmethyl)-1H-pyrrolo[2,3-b]pyridin-2-yl]-7-methoxy-1-{[1-(5-methoxypyrazin-2-yl)azetidin-3-yl]methyl}-1H-1,3-benzodiazole-5-carbonyl}-2-azabicyclo[2.2.1]heptan-7-amine], 87 nM.

Consider `COc1cc(C(=O)N2C[C@H]3CC[C@@H]2[C@@H]3N)cc2nc(-c3cc4ccccc4n3CC3CC3)n(CC3CN(C(=O)c4ccc(C(=O)O)cc4)C3)c12` [Example 151, 4-[3-({5-[(1R,4R,7R)-7-amino-2-azabicyclo[2.2.1]heptane-2-carbonyl]-2-[1-(cyclopropylmethyl)-1H-indol-2-yl]-7-methoxy-1H-1,3-benzodiazol-1-yl}methyl)azetidine-1-carbonyl]benzoic acid], for which the IC50 was determined as 20 nM. In the case of `COc1cc(C(=O)N2C[C@H](N)C[C@@H](F)C2)cc2nc(-c3cc4cccnc4n3CC3CC3)n(Cc3cnn(-c4cncc(C#N)c4)c3)c12` [Example 391, 5-[4-({5-[(3R,5R)-3-amino-5-fluoropiperidine-1-carbonyl]-2-[1-(cyclopropylmethyl)-1H-pyrrolo[2,3-b]pyridin-2-yl]-7-methoxy-1H-1,3-benzodiazol-1-yl}methyl)-1H-pyrazol-1-yl]pyridine-3-carbonitrile] it was 47 nM; in that of `COc1cc(C(=O)N2C[C@H]3CC[C@@H]2[C@@H]3N)cc2nc(-c3cc4cccnc4n3CC3CC3)n(C[C@H]3CCN(c4nccnc4C#N)C3)c12` [Example 202, 3-[(3S)-3-({5-[(1R,4R,7R)-7-amino-2-azabicyclo[2.2.1]heptane-2-carbonyl]-2-[1-(cyclopropylmethyl)-1H-pyrrolo[2,3-b]pyridin-2-yl]-7-methoxy-1H-1,3-benzodiazol-1-yl}methyl)pyrrolidin-1-yl]pyrazine-2-carbonitrile], 21 nM; in that of `COc1cc(C(=O)N2C[C@H]3CC[C@@H]2[C@@H]3N)cc2nc(-c3cc4ccccc4n3CC3CC3)n(CC3CN(C(=O)C4CCCC4)C3)c12` [Example 144, (1R,4R,7R)-2-{1-[(1-cyclopentanecarbonylazetidin-3-yl)methyl]-2-[1-(cyclopropylmethyl)-1H-indol-2-yl]-7-methoxy-1H-1,3-benzodiazole-5-carbonyl}-2-azabicyclo[2.2.1]heptan-7-amine], 17 nM.

`COc1cc(C(=O)N2CC3CCC2[C@@H]3N)cc2nc(-c3csc4ccc(Cl)cc34)n(CC3CN(C(=O)OCc4ccccc4)C3)c12` (stereo partly drawn) [Example 321, benzyl 3-({5-[(1R,4R,7R)-7-amino-2-azabicyclo[2.2.1]heptane-2-carbonyl]-2-(5-chloro-1-benzothiophen-3-yl)-7-methoxy-1H-1,3-benzodiazo1-1-yl}methyl)azetidine-l-carboxylate]: the IC50 turned out to be 1530 nM. Turning to `COc1cc(C(=O)N2C[C@H](N)C[C@@H](F)C2)cc2nc(-c3cc4ccccc4n3CC3CC3)n(Cc3ccccn3)c12` [Example 293, (3R,5R)-1-{2-[1-(cyclopropylmethyl)-1H-indol-2-yl]-7-methoxy-1-[(pyridin-2-yl)methyl]-1H-1,3-benzodiazole-5-carbonyl}-5-fluoropiperidin-3-amine], the IC50 stood at 2660 nM. In the case of `Cn1cc(Cn2c(-c3cc4ccccc4n3CC3CC3)nc3cc(C(=O)N4CC5CCC4[C@@H]5N)cc(Cl)c32)cn1` (stereo partly drawn) [Example 484, (7R)-2-{7-chloro-2-[1-(cyclopropylmethyl)-1H-indol-2-yl]-1-[(1-methyl-1H-pyrazol-4-yl)methyl]-1H-1,3-benzodiazole-5-carbonyl}-2-azabicyclo[2.2.1]heptan-7-amine] it was 30 nM; in that of `N#Cc1ccc(C(=O)N2CC(Cn3c(-c4cc5ccccc5n4CC4CC4)nc4cc(C(=O)N5C[C@H]6CC[C@@H]5[C@@H]6N)ccc43)C2)cc1` [Example 165, 4-[3-({5-[(1R,4R,7R)-7-amino-2-azabicyclo[2.2.1]heptane-2-carbonyl]-2-[1-(cyclopropylmethyl)-1H-indol-2-yl]-1H-1,3-benzodiazol-1-yl}methyl)azetidine-1-carbonyl]benzonitrile], 30 nM.
